Data published in patent US11773094B2, “Farnesoid X receptor agonists and uses thereof” (Metacrine, Inc., priority 2018, dated 2023).

Biological target: T1, hFXR (Homo sapiens, UniProt Q96RI1)
T1 construct: expressed in transfected cells; host or cells: CV-1 cells
T1 sequence (Q96RI1 1-486): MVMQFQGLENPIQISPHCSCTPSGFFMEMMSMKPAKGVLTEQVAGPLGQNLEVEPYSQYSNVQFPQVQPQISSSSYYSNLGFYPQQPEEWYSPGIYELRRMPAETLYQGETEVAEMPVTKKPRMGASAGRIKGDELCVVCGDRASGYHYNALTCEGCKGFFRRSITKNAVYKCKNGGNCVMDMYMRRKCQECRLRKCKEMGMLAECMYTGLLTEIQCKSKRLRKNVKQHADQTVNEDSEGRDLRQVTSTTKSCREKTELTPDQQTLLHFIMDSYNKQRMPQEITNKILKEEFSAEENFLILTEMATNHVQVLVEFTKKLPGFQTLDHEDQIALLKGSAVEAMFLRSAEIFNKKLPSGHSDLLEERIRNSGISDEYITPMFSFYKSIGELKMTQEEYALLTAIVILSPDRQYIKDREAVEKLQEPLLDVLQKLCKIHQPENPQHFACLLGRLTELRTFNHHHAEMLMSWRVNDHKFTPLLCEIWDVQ
T1 sequence (P19793 1-462 partner): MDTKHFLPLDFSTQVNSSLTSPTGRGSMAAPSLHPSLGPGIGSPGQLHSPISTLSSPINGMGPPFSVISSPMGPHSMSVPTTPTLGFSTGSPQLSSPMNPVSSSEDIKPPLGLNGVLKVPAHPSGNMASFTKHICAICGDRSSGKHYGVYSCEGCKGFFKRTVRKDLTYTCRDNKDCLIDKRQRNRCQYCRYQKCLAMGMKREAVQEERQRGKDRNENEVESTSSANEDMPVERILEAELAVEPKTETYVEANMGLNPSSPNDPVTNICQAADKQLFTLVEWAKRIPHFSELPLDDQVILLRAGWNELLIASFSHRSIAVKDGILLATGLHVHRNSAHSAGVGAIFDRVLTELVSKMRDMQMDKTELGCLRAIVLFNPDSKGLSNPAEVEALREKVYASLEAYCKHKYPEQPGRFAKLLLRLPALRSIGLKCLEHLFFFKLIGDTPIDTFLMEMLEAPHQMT
Assay: In Vitro FXR Assay (TK): TK-ECRE-luc reporter in transfected CV-1 cells
Assay type: cell-based
Details: CV-1 cells transfected with hFXR, hRXR, pCMX-YFP, 18 hrs incubation, luminescence
How it was run: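 Transactivation is scored as luminescence in CV-1 cell lysates. The cells, co-transfected with hFXR/hRXR and a TK-ECRE-luc reporter, are exposed to DMSO-diluted compounds for 18 h.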

Row | SMILES | EC50
1 | COc1ccc(C23CCC(CN(c4cc(-c5coc(C(C)(C)C)n5)ccn4)C(=O)[C@H]4CC[C@H](OC(=O)N5CC(OCCO)C5)CC4)(CC2)CC3)cc1C [Compound 2.14, 4-((4-(2-(tert-Butyl)oxazol-4-yl)pyridin-2-yl)((4-(4-methoxy-3-methylphenyl)bicyclo[2.2.2]octan-1-yl)methyl)carbamoyl) (trans-cyclohexyl) 3-(2-hydroxyethoxy)azetidine-1-carboxylate] | ≤ 10 nM
2 | COc1ccc([C@H]2CC[C@H](CN(c3cc(-c4cnc(C(C)(C)C)s4)ccn3)C(=O)[C@H]3CC[C@H](OC(=O)N4CC(O)C4(C)C)CC3)CC2)cc1C (stereo partly drawn) [Compound 1.02, trans-4-((4-(2-(tert-Butyl)thiazol-5-yl)pyridin-2-yl)(((trans)-4-(4-methoxy-3-methylphenyl)cyclohexyl)methyl)carbamoyl) cyclohexyl 3-hydroxy-2,2-dimethylazetidine-1-carboxylate] | 10 to 1000 nM
3 | COc1ccc(C23CCC(CN(c4cc(-c5cnn(C(C)(C)C)c5)ccn4)C(=O)[C@H]4CC[C@H](OC(=O)NC5CCOCC5)CC4)(CC2)CC3)cc1C [Compound 3.01, 4-((4-(1-(tert-Butyl)-1H-pyrazol-4-yl)pyridin-2-yl)((4-(4-methoxy-3-methylphenyl)bicyclo[2.2.2]octan-1-yl)methyl)carbamoyl) cyclohexyl (tetrahydro-2H-pyran-4-yl)trans-carbamate] | ≤ 10 nM
4 | CCC(C)(C)n1cc(-c2ccnc(N(CC34CCC(c5ccc(OC)c(C)c5)(CC3)CC4)C(=O)[C@H]3CC[C@H](OC(=O)N4CC(C)(O)C4)CC3)c2)cn1 [Compound 4.01, 4-(((4-(4-Methoxy-3-methylphenyl)bicyclo[2.2.2]octan-1-yl)methyl)(4-(1-(tert-pentyl)-1H-pyrazol-4-yl)pyridin-2-yl)carbamoyl) cyclohexyl trans-3-hydroxy-3-methylazetidine-1-carboxylate] | ≤ 10 nM
5 | CCC(C)(C)n1cc(-c2ccnc(N(CC34CCC(c5ccc(OC)c(C)c5)(CC3)CC4)C(=O)[C@H]3CC[C@H](OC(=O)N4CC(O)C4)CC3)c2)cn1 [Compound 4, 4-(((4-(4-Methoxy-3-methylphenyl)bicyclo[2.2.2]octan-1-yl)methyl)(4-(1-(tert-pentyl)-1H-pyrazol-4-yl)pyridin-2-yl)carbamoyl) cyclohexyl trans-3-hydroxyazetidine-1-carboxylate] | ≤ 10 nM
6 | COc1ccc([C@H]2CC[C@H](CN(c3cc(-c4coc(C(C)(C)C)n4)ccn3)C(=O)[C@H]3CC[C@H](OC(=O)N4CCC(O)CC4)CC3)CC2)cc1C [Compound 1.06, trans-4-((4-(2-(tert-Butyl)oxazol-4-yl)pyridin-2-yl)(((trans)-4-(4-methoxy-3-methylphenyl)cyclohexyl)methyl)carbamoyl) cyclohexyl 4-hydroxypiperidine-1-carboxylate] | 10 to 1000 nM
7 | COc1ccc(C23CCC(CN(c4cc(-c5coc(C(C)(C)C)n5)ccn4)C(=O)[C@H]4CC[C@H](OC(=O)N5CC(S(C)(=O)=O)C5)CC4)(CC2)CC3)cc1C [Compound 2.13, 4-((4-(2-(tert-Butyl)oxazol-4-yl)pyridin-2-yl)((4-(4-methoxy-3-methylphenyl)bicyclo[2.2.2]octan-1-yl)methyl)carbamoyl) (trans-cyclohexyl) 3-(methylsulfonyl)azetidine-1-carboxylate] | ≤ 10 nM
8 | COc1ccc(C23CCC(CN(c4cc(-c5cnc(C(C)(C)C)s5)ccn4)C(=O)[C@H]4CC[C@H](OC(=O)N5CC(CO)C5)CC4)(CC2)CC3)cc1C [Compound 3.08, 4-((4-(2-(tert-Butyl)thiazol-5-yl)pyridin-2-yl)((4-(4-methoxy-3-methylphenyl)bicyclo[2.2.2]octan-1-yl)methyl)carbamoyl) (trans-cyclohexyl) 3-(hydroxymethyl)azetidine-1-carboxylate] | ≤ 10 nM
9 | COc1ccc(C23CCC(CN(c4cc(-c5cnn(C(C)(C)C)c5)ccn4)C(=O)[C@H]4CC[C@H](OC(=O)N5CC(O)C5)CC4)(CC2)CC3)cc1C [Compound 3, 4-((4-(1-(tert-Butyl)-1H-pyrazol-4-yl)pyridin-2-yl)((4-(4-methoxy-3-methylphenyl)bicyclo[2.2.2]octan-1-yl)methyl)carbamoyl)cyclohexyl 3-hydroxyazetidine-trans-1-carboxylate] | ≤ 10 nM
10 | CCC(C)(C)n1cc(-c2ccnc(N(CC34CCC(c5ccc(OC)c(C)c5)(CC3)CC4)C(=O)[C@H]3CC[C@H](OC(=O)NCCCO)CC3)c2)cn1 [Compound 4.03, 4-(((4-(4-Methoxy-3-methylphenyl)bicyclo[2.2.2]octan-1-yl)methyl)(4-(1-(tert-pentyl)-1H-pyrazol-4-yl)pyridin-2-yl)carbamoyl) cyclohexyl trans-(3-hydroxypropyl)carbamate] | ≤ 10 nM
11 | COc1ccc(C23CCC(CN(c4cc(-c5coc(C(C)(C)C)n5)ccn4)C(=O)[C@H]4CC[C@H](OC(=O)NC5CCOCC5)CC4)(CC2)CC3)cc1C [Compound 3.11, 4-((4-(2-(tert-Butyl)oxazol-4-yl)pyridin-2-yl)((4-(4-methoxy-3-methylphenyl)bicyclo[2.2.2]octan-1-yl)methyl)carbamoyl) cyclohexyl (tetrahydro-2H-pyran-4-yl)trans-carbamate] | ≤ 10 nM
12 | COc1ccc(C23CCC(CN(c4cc(-c5cnn(C(C)(C)C)c5)ncn4)C(=O)[C@H]4CC[C@H](OC(=O)N5CC(O)C5)CC4)(CC2)CC3)cc1C [Compound 2.36, 4-((6-(1-(tert-Butyl)-1H-pyrazol-4-yl)pyrimidin-4-yl)((4-(4-methoxy-3-methylphenyl)bicyclo[2.2.2]octan-1-yl)methyl)carbamoyl) (trans-cyclohexyl) 3-hydroxyazetidine-1-carboxylate] | 10 to 1000 nM
13 | COc1c(C)cc(C23CCC(CN(c4cc(-c5cnn(C(C)(C)C)c5)ccn4)C(=O)[C@H]4CC[C@H](OC(=O)N5CC(O)C5)CC4)(CC2)CC3)cc1C [Compound 3.04, 4-((4-(1-(tert-Butyl)-1H-pyrazol-4-yl)pyridin-2-yl)((4-(4-methoxy-3,5-dimethylphenyl)bicyclo[2.2.2]octan-1-yl)methyl)carbamoyl) (trans-cyclohexyl) 3-hydroxyazetidine-1-carboxylate] | ≤ 10 nM
14 | COc1ccc(C23CCC(CN(c4cc(-c5cnn(C(C)(C)C)c5)c(F)cn4)C(=O)[C@H]4CC[C@H](OC(=O)N5CC(O)C5)CC4)(CC2)CC3)cc1C [Compound 1.12, 4-((4-(1-(tert-Butyl)-1H-pyrazol-4-yl)-5-fluoropyridin-2-yl)((4-(4-methoxy-3-methylphenyl)bicyclo[2.2.2]octan-1-yl)methyl)carbamoyl) (trans-cyclohexyl) 3-hydroxyazetidine-1-carboxylate] | ≤ 10 nM
15 | COc1ccc(C23CCC(CN(c4cc(-c5cnc(C(C)(C)C)s5)ccn4)C(=O)[C@H]4CC[C@H](OC(=O)N5CC(OCCO)C5)CC4)(CC2)CC3)cc1C [Compound 2.07, 4-((4-(2-(tert-Butyl)thiazol-5-yl)pyridin-2-yl)((4-(4-methoxy-3-methylphenyl)bicyclo[2.2.2]octan-1-yl)methyl)carbamoyl) (trans-cyclohexyl) 3-(2-hydroxyethoxy)azetidine-1-carboxylate] | ≤ 10 nM
16 | COc1ccc(C23CCC(CN(c4cc(-c5cnc(C(C)(C)C)s5)ccn4)C(=O)[C@H]4CC[C@H](OC(=O)N5CC(S(C)(=O)=O)C5)CC4)(CC2)CC3)cc1C [Compound 2.03, 4-((4-(2-(tert-Butyl)thiazol-5-yl)pyridin-2-yl)((4-(4-methoxy-3-methylphenyl)bicyclo[2.2.2]octan-1-yl)methyl)carbamoyl) (trans-cyclohexyl) 3-(methylsulfonyl)azetidine-1-carboxylate] | ≤ 10 nM
17 | COc1ccc([C@H]2CC[C@H](CN(c3cc(-c4cnn(C(C)(C)C)c4)ccn3)C(=O)[C@H]3CC[C@H](OC(=O)NC4CCOCC4)CC3)CC2)cc1C [Compound 1.11, trans-4-((4-(1-(tert-Butyl)-1H-pyrazol-4-yl)pyridin-2-yl)((trans-4-(4-methoxy-3-methylphenyl)cyclohexyl)methyl)carbamoyl) cyclohexyl (tetrahydro-2H-pyran-4-yl)carbamate] | 10 to 1000 nM
18 | COc1ccc(C23CCC(CN(c4cc(-c5cnn(C(C)(C)C)c5)ccn4)C(=O)[C@H]4CC[C@H](OC(=O)NCCCO)CC4)(CC2)CC3)cc1C [Compound 2.31, 4-((4-(1-(tert-Butyl)-1H-pyrazol-4-yl)pyridin-2-yl)((4-(4-methoxy-3-methylphenyl)bicyclo[2.2.2]octan-1-yl)methyl)carbamoyl) (trans-cyclohexyl) (3-hydroxypropyl)carbamate] | ≤ 10 nM
